According to ChEMBL document CHEMBL5291721, “A preclinical secondary pharmacology resource illuminates target-adverse drug reaction associations of marketed drugs” (Nat Commun, 2023):

How the values were obtained:
[1] = target: T1, Muscarinic acetylcholine receptor M1 (Homo sapiens, UniProt P11229); type: functional, cell-based
T1 sequence (P11229 whole entry): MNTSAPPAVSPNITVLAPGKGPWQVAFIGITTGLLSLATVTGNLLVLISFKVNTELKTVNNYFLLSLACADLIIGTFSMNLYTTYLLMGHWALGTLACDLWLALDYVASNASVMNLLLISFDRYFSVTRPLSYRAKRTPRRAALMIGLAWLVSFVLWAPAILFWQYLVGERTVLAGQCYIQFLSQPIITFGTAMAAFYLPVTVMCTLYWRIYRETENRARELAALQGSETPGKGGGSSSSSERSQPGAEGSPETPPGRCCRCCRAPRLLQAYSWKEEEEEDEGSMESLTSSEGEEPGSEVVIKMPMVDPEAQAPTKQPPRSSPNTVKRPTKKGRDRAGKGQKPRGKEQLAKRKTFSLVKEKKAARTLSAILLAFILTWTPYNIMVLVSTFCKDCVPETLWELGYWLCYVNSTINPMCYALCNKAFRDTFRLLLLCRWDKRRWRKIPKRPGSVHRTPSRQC

[2] = target: Vasopressin V2 receptor (Homo sapiens, UniProt P30518)
Sequence of Vasopressin V2 receptor (P30518 whole entry): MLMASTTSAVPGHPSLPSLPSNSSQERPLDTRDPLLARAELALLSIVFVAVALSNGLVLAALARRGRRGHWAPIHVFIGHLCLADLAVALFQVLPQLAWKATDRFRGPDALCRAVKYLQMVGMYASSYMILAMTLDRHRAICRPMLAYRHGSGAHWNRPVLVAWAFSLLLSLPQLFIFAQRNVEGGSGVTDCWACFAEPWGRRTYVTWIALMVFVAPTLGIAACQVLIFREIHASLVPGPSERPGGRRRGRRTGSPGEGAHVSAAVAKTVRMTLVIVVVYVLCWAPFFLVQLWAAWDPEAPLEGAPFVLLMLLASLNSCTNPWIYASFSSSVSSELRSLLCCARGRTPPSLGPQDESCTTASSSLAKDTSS

[3] = target: T2, B2 bradykinin receptor (Homo sapiens, UniProt P30411)
T2 sequence (P30411 whole entry): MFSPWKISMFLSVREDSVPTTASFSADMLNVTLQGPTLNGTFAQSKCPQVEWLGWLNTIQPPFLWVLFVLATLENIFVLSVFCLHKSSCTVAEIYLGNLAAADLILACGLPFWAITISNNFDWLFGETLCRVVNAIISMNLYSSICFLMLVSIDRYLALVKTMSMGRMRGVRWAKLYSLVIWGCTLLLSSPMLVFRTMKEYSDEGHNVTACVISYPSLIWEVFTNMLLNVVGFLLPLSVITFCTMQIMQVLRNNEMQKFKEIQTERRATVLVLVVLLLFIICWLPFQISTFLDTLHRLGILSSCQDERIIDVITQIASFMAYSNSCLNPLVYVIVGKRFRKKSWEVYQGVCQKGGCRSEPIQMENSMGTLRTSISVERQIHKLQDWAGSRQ

[4] = target: T3, Cholecystokinin receptor type A (Homo sapiens, UniProt P32238)
T3 sequence (P32238 whole entry): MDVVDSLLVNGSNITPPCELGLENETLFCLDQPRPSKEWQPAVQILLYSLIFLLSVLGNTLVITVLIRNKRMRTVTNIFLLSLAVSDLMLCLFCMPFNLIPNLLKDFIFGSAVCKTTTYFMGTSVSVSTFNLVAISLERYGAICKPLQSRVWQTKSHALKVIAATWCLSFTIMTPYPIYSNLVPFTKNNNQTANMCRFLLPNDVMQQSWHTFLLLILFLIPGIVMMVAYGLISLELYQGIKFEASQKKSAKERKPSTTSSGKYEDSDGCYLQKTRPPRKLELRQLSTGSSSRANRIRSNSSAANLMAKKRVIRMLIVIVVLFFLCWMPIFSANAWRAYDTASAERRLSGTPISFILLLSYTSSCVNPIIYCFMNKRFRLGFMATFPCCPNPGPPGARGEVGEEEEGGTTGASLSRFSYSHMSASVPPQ

[5] = target: T4, Muscarinic acetylcholine receptor M2 (Homo sapiens, UniProt P08172); type: functional, cell-based
T4 sequence (P08172 whole entry): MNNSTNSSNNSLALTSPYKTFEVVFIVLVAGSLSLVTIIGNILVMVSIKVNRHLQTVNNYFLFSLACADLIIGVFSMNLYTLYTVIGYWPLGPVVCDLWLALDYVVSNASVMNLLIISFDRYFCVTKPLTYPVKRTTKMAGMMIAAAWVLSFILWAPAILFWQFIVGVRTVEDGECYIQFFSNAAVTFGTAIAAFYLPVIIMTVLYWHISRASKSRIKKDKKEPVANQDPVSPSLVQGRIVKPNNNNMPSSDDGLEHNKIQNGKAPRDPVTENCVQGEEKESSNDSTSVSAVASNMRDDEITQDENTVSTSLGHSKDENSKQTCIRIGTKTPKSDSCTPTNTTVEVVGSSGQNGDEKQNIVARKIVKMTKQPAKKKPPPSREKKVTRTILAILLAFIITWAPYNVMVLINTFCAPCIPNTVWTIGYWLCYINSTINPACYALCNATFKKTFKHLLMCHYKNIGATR

[6] = target: Gamma-aminobutyric acid receptor subunit alpha-1 (Rattus norvegicus, UniProt P62813); type: functional
Sequence of Gamma-aminobutyric acid receptor subunit alpha-1 (P62813 whole entry): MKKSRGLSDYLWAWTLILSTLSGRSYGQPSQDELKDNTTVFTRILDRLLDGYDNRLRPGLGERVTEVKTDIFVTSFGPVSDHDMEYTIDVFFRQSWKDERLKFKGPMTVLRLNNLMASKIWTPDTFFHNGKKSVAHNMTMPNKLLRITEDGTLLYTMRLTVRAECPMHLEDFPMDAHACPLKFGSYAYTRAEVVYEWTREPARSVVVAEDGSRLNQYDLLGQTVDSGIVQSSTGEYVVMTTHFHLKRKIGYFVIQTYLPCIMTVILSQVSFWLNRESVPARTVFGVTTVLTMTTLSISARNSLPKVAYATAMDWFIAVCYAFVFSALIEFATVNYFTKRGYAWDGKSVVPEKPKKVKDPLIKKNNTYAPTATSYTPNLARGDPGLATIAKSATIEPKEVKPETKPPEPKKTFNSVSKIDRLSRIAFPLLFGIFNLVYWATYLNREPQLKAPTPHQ

[7] = target: T5, Amine oxidase [flavin-containing] A (Homo sapiens, UniProt P21397); type: functional
T5 sequence (P21397 whole entry): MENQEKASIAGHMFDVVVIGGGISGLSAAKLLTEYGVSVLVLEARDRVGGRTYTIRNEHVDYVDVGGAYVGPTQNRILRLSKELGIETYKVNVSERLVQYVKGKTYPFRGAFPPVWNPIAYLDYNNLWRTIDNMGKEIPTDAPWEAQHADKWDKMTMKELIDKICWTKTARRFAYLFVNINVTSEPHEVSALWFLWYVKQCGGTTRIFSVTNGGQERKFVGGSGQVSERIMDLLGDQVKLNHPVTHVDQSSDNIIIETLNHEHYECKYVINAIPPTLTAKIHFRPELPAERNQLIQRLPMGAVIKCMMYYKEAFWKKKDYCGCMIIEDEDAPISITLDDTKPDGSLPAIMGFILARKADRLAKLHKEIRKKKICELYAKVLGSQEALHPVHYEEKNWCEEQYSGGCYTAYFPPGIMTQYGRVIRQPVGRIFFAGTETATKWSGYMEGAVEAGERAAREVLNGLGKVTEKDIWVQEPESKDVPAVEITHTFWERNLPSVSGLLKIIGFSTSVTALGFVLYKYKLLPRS
Note: assay procedure not described here.

| Structure (SMILES) | AC50 [1] | AC50 [2] | AC50 [3] | AC50 [4] | AC50 [5] | AC50 [6] | AC50 [7] |
| --- | --- | --- | --- | --- | --- | --- | --- |
| CC(C1=C(CCN(C)C)Cc2ccccc21)c1ccccn1 (stereo unspecified) | > 30 µM | – | – | – | – | – | – |
| CC(=O)OC(C)OC(=O)C(C)c1ccc(-c2ccccc2)c(F)c1 (stereo unspecified) | > 30 µM | – | – | – | – | – | – |
| C[C@]12CC[C@H](O)CC1=CC[C@@H]1[C@@H]2CC[C@]2(C)C(c3cccnc3)=CC[C@@H]12 [ABIRATERONE] | – | > 30 µM | > 30 µM | > 30 µM | > 10 µM | > 10 µM | > 10 µM |
| CC(=O)OCC[N+](C)(C)C [ACETYLCHOLINE] | – | > 30 µM | > 30 µM | > 30 µM | – | > 10 µM | > 10 µM |
| C[C@H](N)C(=O)O [ALANINE] | > 30 µM | – | – | – | – | – | – |
| O=C1c2c(O)cccc2Cc2cccc(O)c21 [ANTHRALIN] | > 30 µM | – | – | – | – | – | – |
| O=C(Nc1nc(-c2cc(Cl)cs2)c(N2CCN(C3CCCCC3)CC2)s1)c1cnc(N2CCC(C(=O)O)CC2)c(Cl)c1 [AVATROMBOPAG] | – | – | – | – | – | > 10 µM | – |
| CN(C)C(=O)Oc1cc(OC(=O)N(C)C)cc(C(O)CNC(C)(C)C)c1 (stereo unspecified) [BAMBUTEROL] | – | > 30 µM | > 30 µM | > 30 µM | – | – | – |
| C[C@H]1C[C@H]2[C@@H]3CCC4=CC(=O)C=C[C@]4(C)[C@@]3(Cl)[C@@H](O)C[C@]2(C)[C@@]1(O)C(=O)CO [BECLOMETHASONE] | – | > 30 µM | > 30 µM | > 30 µM | – | > 10 µM | > 10 µM |
| CO[C@@]1(NC(=O)CSCC#N)C(=O)N2C(C(=O)O)=C(CSc3nnnn3C)CS[C@@H]21 [CEFMETAZOLE] | – | – | – | – | > 30 µM | > 30 µM | > 30 µM |
| NS(=O)(=O)c1cc(C2(O)NC(=O)c3ccccc32)ccc1Cl (stereo unspecified) [CHLORTHALIDONE] | – | > 10 µM | > 10 µM | > 10 µM | > 10 µM | > 10 µM | > 10 µM |
| CC[C@H]1OC(=O)[C@H](C)[C@@H](O[C@H]2C[C@@](C)(OC)[C@@H](O)[C@H](C)O2)[C@H](C)[C@@H](O[C@@H]2O[C@H](C)C[C@H](N(C)C)[C@H]2O)[C@](C)(OC)C[C@@H](C)C(=O)[C@H](C)[C@@H](O)[C@]1(C)O [CLARITHROMYCIN] | – | > 30 µM | > 30 µM | > 30 µM | > 30 µM | – | > 30 µM |
| Oc1c(I)cc(Cl)c2cccnc12 [CLIOQUINOL] | – | – | – | – | – | > 30 µM | > 30 µM |
| C[C@@H]1CCC[C@H](C)N1NC(=O)c1ccc(Cl)c(S(N)(=O)=O)c1 [CLOPAMIDE] | – | > 30 µM | > 30 µM | > 30 µM | > 30 µM | > 30 µM | > 30 µM |
| COc1ccc2c(c1)[C@]13CCCC[C@@H]1[C@H](C2)N(C)CC3 [DEXTROMETHORPHAN] | – | > 30 µM | > 30 µM | > 30 µM | > 10 µM | > 10 µM | > 10 µM |
| O=c1oc2ccccc2c(O)c1Cc1c(O)c2ccccc2oc1=O [DICUMAROL] | – | > 10 µM | > 10 µM | > 10 µM | > 10 µM | > 10 µM | > 10 µM |
| CCn1cc(C(=O)O)c(=O)c2cc(F)c(N3CCNCC3)nc21 [ENOXACIN] | – | > 30 µM | > 30 µM | > 30 µM | > 10 µM | > 10 µM | > 10 µM |
| O=C(O)CSCC(=O)NC1CCSC1=O (stereo unspecified) [ERDOSTEINE] | – | > 30 µM | > 30 µM | > 30 µM | > 30 µM | > 30 µM | > 30 µM |
| COc1cccc(N(C)C(=S)Oc2ccc3c(c2)CCCC3)n1 [LIRANAFTATE] | – | > 30 µM | > 30 µM | > 30 µM | > 30 µM | > 30 µM | 18 µM |
| C#C[C@]1(O)CC[C@H]2[C@@H]3CCc4cc(OC)ccc4[C@H]3CC[C@@]21C [MESTRANOL] | – | > 10 µM | > 10 µM | > 10 µM | > 10 µM | > 10 µM | > 30 µM |
| N=C(N)c1ccc2cc(OC(=O)c3ccc(N=C(N)N)cc3)ccc2c1 [NAFAMOSTAT] | – | > 30 µM | > 30 µM | > 30 µM | 12 µM | > 30 µM | 14 µM |
| CNC(=O)Oc1ccc2c(c1)[C@]1(C)CCN(C)[C@@H]1N2C [PHYSOSTIGMINE] | – | > 30 µM | > 30 µM | > 30 µM | > 30 µM | > 30 µM | > 30 µM |
| O=C(O)c1cc(O)c2c3nc4ccccc4oc-3cc(=O)c2n1 [PIRENOXINE] | – | > 30 µM | > 30 µM | 5.1 µM | > 30 µM | > 30 µM | 2.2 µM |
| NS(=O)(=O)c1cc(C(=O)O)cc(N2CCCC2)c1Oc1ccccc1 [PIRETANIDE] | – | > 30 µM | > 30 µM | > 30 µM | > 30 µM | > 30 µM | > 30 µM |
| CNCCCC1c2ccccc2C=Cc2ccccc21 [PROTRIPTYLINE] | – | > 10 µM | > 10 µM | > 10 µM | 1.8 µM | > 10 µM | > 10 µM |
| COCCCOc1ccnc(C[S+]([O-])c2nc3ccccc3[nH]2)c1C (stereo unspecified) [RABEPRAZOLE] | – | > 30 µM | > 30 µM | > 30 µM | > 10 µM | > 10 µM | > 10 µM |
| CC(C)=CCOc1ccc(/C=C/C(=O)c2ccc(OCC=C(C)C)cc2OCC(=O)O)cc1 [SOFALCONE] | – | > 30 µM | > 3 µM | > 30 µM | > 30 µM | > 30 µM | > 30 µM |
| O=C(CCCN1CCC2(CC1)C(=O)NCN2c1ccccc1)c1ccc(F)cc1 [SPIPERONE] | – | > 30 µM | > 30 µM | > 30 µM | – | > 30 µM | > 30 µM |
| CN(C)c1cc(NC(=O)CNC(C)(C)C)c(O)c2c1C[C@H]1C[C@H]3[C@H](N(C)C)C(O)=C(C(N)=O)C(=O)[C@@]3(O)C(O)=C1C2=O [TIGECYCLINE] | – | > 30 µM | > 30 µM | > 30 µM | > 30 µM | > 30 µM | > 30 µM |
| OCCN1CCN(CC/C=C2/c3ccccc3Sc3ccc(Cl)cc32)CC1 [ZUCLOPENTHIXOL] | – | > 10 µM | > 10 µM | > 10 µM | > 10 µM | > 10 µM | > 10 µM |
